According to US20030144346A1, “Methods and compositions for regulation of 5-alpha reductase activity” (priority 1997, published 2003):
pIC50: −log10 of the molar value.

How the values were obtained:
[1] = target: T1, type 2 human 5α-reductase (HRED2) (Homo sapiens, UniProt P31213); assay: Cell free assay of 5α-reductase, microsomes of rat 1A cells expressing type 2 isoenzyme (HRED2); type: biochemical; parameters: expressed in transfected cells; host or cells: rat 1A cells infected with pMV7 retrovirus; microsomes;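 note: labeled testosterone and its product dihydrotestosterone measured in microsomal reaction extracts via thin layer chromatography plus radioanalytic scanning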
T1 sequence (P31213 1-254): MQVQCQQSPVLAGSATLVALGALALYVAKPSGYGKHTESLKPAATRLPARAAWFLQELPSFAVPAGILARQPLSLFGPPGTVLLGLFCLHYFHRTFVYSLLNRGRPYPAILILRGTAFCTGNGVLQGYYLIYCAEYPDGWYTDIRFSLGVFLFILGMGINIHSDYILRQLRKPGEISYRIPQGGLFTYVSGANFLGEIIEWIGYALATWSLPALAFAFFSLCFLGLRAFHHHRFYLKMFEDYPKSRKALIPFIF

[2] = target: T2, type 1 human 5α-reductase (HRED1) (Homo sapiens, UniProt P18405); assay: Whole cell assay of 5α-reductase, type 1 isoenzyme; type: cell-based; parameters: expressed in transfected cells; host or cells: rat 1A cells infected with pMV7 retrovirus;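 note: intact rat 1A cells engineered to express the human type 1 5α-reductase isozyme serve as the enzyme source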
T2 sequence (P18405 1-259): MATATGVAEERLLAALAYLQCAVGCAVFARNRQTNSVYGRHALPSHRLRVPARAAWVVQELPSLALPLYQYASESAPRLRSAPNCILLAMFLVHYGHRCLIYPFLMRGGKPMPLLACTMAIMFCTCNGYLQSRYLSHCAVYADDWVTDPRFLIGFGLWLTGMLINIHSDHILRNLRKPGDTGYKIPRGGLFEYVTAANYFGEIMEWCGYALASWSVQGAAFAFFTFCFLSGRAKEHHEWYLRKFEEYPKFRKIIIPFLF

[3] = target: T1, type 2 human 5α-reductase (HRED2); assay: Whole cell assay of 5α-reductase, type 2 isoenzyme; type: cell-based; parameters: expressed in transfected cells; host or cells: rat 1A cells infected with pMV7 retrovirus; settings: for inhibition at 100 µM / HRED2 % Inhibition @ 100 μM: Table 7; for pIC50: Table 7, read-out: HCRED2 IC50;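 for all read-outs here: intact rat 1A cells genetically modified to carry human type 2 5α-reductase served as the enzyme source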
[4] = target: T2, type 1 human 5α-reductase (HRED1); assay: Cell free assay of 5α-reductase, microsomes of rat 1A cells expressing type 1 isoenzyme (HRED1); type: biochemical; parameters: expressed in transfected cells; host or cells: rat 1A cells infected with pMV7 retrovirus; microsomes;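 note: microsomes from rat 1A cells expressing human type 1 5α-reductase, conversion of radiolabeled testosterone to dihydrotestosterone quantified by thin layer chromatography with radioanalytic scanning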
[5] = whole cell assay, Table 7, read-out: HCRED1 IC50
[6] = read-out: HRED2 % Inhibition @ 100 μM
[7] = read-out: HRED1 % Inhibition @ 100 μM
[8] = read-out: HRED2 % Inhibition @ 100 uM
[9] = read-out: HRED1 % Inhibition @ 100 uM
[10] = 100 uM, cell free assay, Table 1
[11] = cell free assay, Table 2 catechols, read-out: HRED2 IC50
[12] = cell free assay, Table 2 catechols, read-out: HRED1 IC50

CCCCCC#CCC#CCC#CCC#CCCCC(=O)O [5,8,11,14-Eocpsatetraynoic Acid, 5,8,11,14-eicosatetraynoic acid]
inhibition at 100 µM ([1]; 100 μM, cell free assay, Table 6, read-out: HRED2 % Inhibition @ 100 μM): 81% | pIC50 ([1]; cell-free assay, read-out: IC50, type 2 isoenzyme): 5.52 | inhibition at 100 µM ([2]; whole cell assay, Table 7): 67% | pIC50 [2, 5]: 4.66 | inhibition at 100 µM [3]: 86% | pIC50 [3]: 5.70 | inhibition at 100 µM ([4]; 100 μM, cell free assay, Table 6, read-out: HRED1 % Inhibition @ 100 μM): 97% | pIC50 ([4]; cell-free assay, read-out: IC50, type 1 isoenzyme): 4.82

O=C1c2ccccc2C(=O)c2c1cc(S(=O)(=O)[O-])c(O)c2O.[Na+] [Alizarin Red 5, Alizarin Red S]
pIC50 ([1]; cell free assay, Table 4 quinones, read-out: HRED2 IC50): < 4.00 | HRED1 % Inhibition @ 100 μM ([2]; whole cell assay, Table 7): 28% | pIC50 [3]: < 4.00

O=C1c2ccccc2C(=O)c2c1ccc(O)c2O [Alizarin]
inhibition at 100 µM [1, 6]: 54% | inhibition at 100 µM ([2]; whole cell assay, Table 7): 75% | inhibitory activity in the whole cell assay, type 1 isoenzyme, in words ([2]; whole cell assay): very effective inhibitor | pIC50 [2, 5]: 5.22 | inhibition at 100 µM [3]: 27% | pIC50 [3]: < 4.00 | pIC50 ([4]; cell free assay, Table 4 quinones, read-out: HRED1 IC50): 5.52 | inhibitory activity against type 1 isoenzyme, in words ([4]; cell-free assay): very effective inhibitor | inhibition at 100 µM [4, 7]: 95%

CC/C=C\C/C=C\C/C=C\CCCCCCCC(=O)OC [Alpha-Linolenic Acid Me Ester]
HRED1 % Inhibition @ 100 μM ([2]; whole cell assay, Table 7): 24% | pIC50 [2, 5]: < 4.00 | HRED2 % Inhibition @ 100 μM [3]: 18% | pIC50 [3]: < 4.00

Oc1ccc2c(O)c3ccccc3cc2c1O [Anthrarobin]
pIC50 [1]: 4.30 | inhibition at 100 µM [1, 8]: 97% | inhibition at 100 µM [1, 6]: 97% | pIC50 ([1]; read-out: HRED2 IC50, cell free assay, Table 4 quinones): 4.30 | pIC50 [2]: 5.22 | inhibition at 100 µM ([2]; whole cell assay, Table 7): 91% | inhibitory activity in the whole cell assay, type 1 isoenzyme, in words ([2]; whole cell assay): active | inhibition at 100 µM [3]: 31% | pIC50 [3]: < 4.00 | pIC50 [4]: 5.40 | inhibition at 100 µM [4, 9]: 99% | inhibition at 100 µM [4, 7]: 99% | pIC50 ([4]; read-out: HRED1 IC50, cell free assay, Table 4 quinones): 5.40

COc1ccc(-c2coc3cc(O)cc(O)c3c2=O)cc1 [Biochanin a]
HRED2 % Inhibition @ 100 uM [1, 10]: 74% | pIC50 ([1]; cell free assay, Table 1 flavanoids, read-out: HRED2 IC50): 4.77 | inhibitory activity against type 2 isoenzyme, in words ([1]; cell-free assay): effective inhibitors | HRED1 % Inhibition @ 100 μM ([2]; whole cell assay, Table 7): 64% | pIC50 [2, 5]: 4.19 | inhibitory activity in the whole cell assay, type 2 isoenzyme, in words [3]: significant inhibitory activity | HRED2 % Inhibition @ 100 μM [3]: 93% | pIC50 [3]: 5.30 | HRED1 % Inhibition @ 100 uM [4, 10]: 50% | pIC50 ([4]; cell free assay, Table 1 flavanoids, read-out: HRED1 IC50): < 4.00

O=C(/C=C/c1ccc(O)c(O)c1)OCCc1ccccc1 [Caffeic Acid Phenethyl Ester]
pIC50 [1, 11]: < 4.00 | inhibitory activity in the whole cell assay, type 1 isoenzyme, in words ([2]; whole cell assay): active | pIC50 [2, 5]: 5.10 | pIC50 [3]: 5.15 | pIC50 [4, 12]: 4.59

Oc1ccccc1O [Catechol]
pIC50 [1, 11]: < 4.00 | inhibition at 100 µM [1, 8]: 0% | inhibition at 100 µM ([2]; whole cell assay, Table 7): 9% | pIC50 [2, 5]: < 4.00 | inhibition at 100 µM [3]: 3% | pIC50 [3]: < 4.00 | pIC50 [4, 12]: < 4.00 | inhibition at 100 µM [4, 9]: 5%

COc1cc(/C=C/C(=O)CC(=O)/C=C/c2ccc(O)c(OC)c2)ccc1O [Curcumin]
inhibitory activity against type 2 isoenzyme, in words ([1]; cell-free assay): very effective inhibitor | inhibition at 100 µM [1, 8]: 87% | inhibition at 100 µM ([2]; whole cell assay, Table 7): 99% | inhibition at 100 µM ([4]; 100 uM, cell free assay, Table 3, read-out: HRED1 % Inhibition @ 100 uM): 95% | inhibitory activity against type 1 isoenzyme, in words ([4]; cell-free assay): very effective inhibitor

O=c1c(-c2ccc(O)cc2)coc2cc(O)ccc12 [Daidzein]
inhibitory activity against type 2 isoenzyme, in words ([1]; cell-free assay): effective inhibitors | HRED1 % Inhibition @ 100 μM ([2]; whole cell assay, Table 7): 9% | inhibitory activity in the whole cell assay, type 2 isoenzyme, in words [3]: significant inhibitory activity

CCCCCCCCCCCCOC(=O)c1cc(O)c(O)c(O)c1 [Dodecylgallate]
inhibition at 100 µM ([1]; 100 uM, cell free assay, Table 2, read-out: HRED2 % Inhibition @ 100 uM): 36% | pIC50 [1, 11]: < 4.00 | inhibition at 100 µM ([2]; whole cell assay, Table 7): 99% | inhibitory activity in the whole cell assay, type 1 isoenzyme, in words ([2]; whole cell assay): active | pIC50 [2, 5]: 5.52 | inhibition at 100 µM [3]: 98% | pIC50 [3]: 5.15 | inhibition at 100 µM ([4]; 100 uM, cell free assay, Table 2, read-out: HRED1 % Inhibition @ 100 uM): 88% | pIC50 [4, 12]: 4.37
